Experimental findings from patent publication US10464952B2, “Beta-lactamase inhibitors” (priority 2015, dated 2019) are described below.

The subject of assay [1] is K. pneumoniae expressing the class A carbapenemase KPC-2 and the class B carbapenemase VIM-4. Nature of the assay: Broth microdilution MIC assay, potentiation of meropenem. The class given is cell-based. Conditions: Fixed Mero 4 μg/mL; CAMHB, 16-20 hours at 37° C. The text has this: (§1) To determine the ability of test compounds to potentiate the inhibition of the growth of bacterial strains that produce beta-lactamase enzymes, classic cell based broth microdilution MIC assays were employed. Six bacteria strains producing beta-lactamase enzymes were used: E. coli expressing the Class A Extended Spectrum Beta-Lactamase (ESBL) CTX-M-15, E. cloacae expressing the Class C P99, K. pneumoniae expressing the Class A carbapenemase KPC-3, P.aeruginosa expressing the Class B carbapenemase VIM-2, K. pneumoniae expressing the class A carbapenemase KPC-2 and the class B carbapenemase VIM-4, and K. pneumoniae producing the Class D carbapenemase OXA-48. The assay was conducted in Cation Adjusted Mueller Hinton Broth (CAMHB, BD #212322, BD Diagnostic Systems, Sparks, Md.). Bacteria strains were grown for 3-5 hours in CAMHB broth. Test compounds were added to a microtiter plate in 2-fold serial dilutions in CAMHB in a final concentration range of 32 μg/mL to 0.015 μg/mL. An overlay of CAMHB containing a Beta-lactam was added to the compounds at a final static concentration of 4 μg/mL. […] In addition to the titration of test compounds the MICs of a panel of control beta-lactams is also tested to ensure the strains are behaving consistently from test to test. Once the test compound and antibiotics are added the plates can be inoculated according to CLSI broth microdilution method. After inoculation, the plates are incubated for 16-20 hours at 37° C., then the Minimal Inhibitory Concentration (MIC) of the test compound is determined visually.
(§2) Using the methodology described above, examples of the current invention were evaluated for their ability to inhibit the growth of β-lactamase-producing bacteria in the presence of a β-lactam antibiotic.
(§3) Representative results are shown in Table 3 where A represents an MIC of the fixed β-lactam antibiotic in the presence of >32 μg/mL of a β-lactamase inhibitor of exemplary compounds, B represents the MIC in the presence of between 8 and 32 μg/mL of a β-lactamase inhibitor of exemplary compounds, and C represents the MIC in the presence of ≤4 μg/mL of a β-lactamase inhibitor of exemplary compounds. NT=Not Tested.

Assay [2] has as its system P.aeruginosa expressing the Class B carbapenemase VIM-2. Described as above. Conditions: Fixed Mero 4 μg/mL; CAMHB, 16-20 hours at 37° C. In kind it is cell-based.
Text: as §1, §2, §3

The subject of assay [3] is E. cloacae expressing the Class C P99. Nature of the assay: Broth microdilution MIC assay, potentiation of ceftazidime. The class given is cell-based. To be noted: Fixed CAZ 4 μg/mL; CAMHB, 16-20 hours at 37° C.
Text: as §1, §2, §3

The subject of assay [4] is E. coli expressing the Class A Extended Spectrum Beta-Lactamase (ESBL) CTX-M-15. Described as above. The class given is cell-based. To be noted: Fixed CAZ 4 μg/mL; CAMHB, 16-20 hours at 37° C.
Text: as §1, §2, §3

The next assay concerns the target T1, p99 AmpC (Enterobacter cloacae, UniProt P05364).
T1 construct: made in house; host or cells: E. coli BL21(DE3)
Nature of the assay: β-lactamase enzyme inhibition assay, p99 AmpC (nitrocefin substrate). The class given is biochemical. On the procedure: (§4) For SHV-5, KPC-2, p99AmpC and OXA-4813-lactamases, E. coli BL21(DE3) bacterial cells carrying expression plasmids (expressed as native untagged proteins) for the individual β-lactamases were grown in 1L of Superbroth (Teknova Inc. Hollister, Calif.) supplemented with 100 μg/ml kanamycin selection and 1×5052 (0.5% glycerol, 0.05% glucose and 0.2% α-lactose) at 35° C. for 18-20 hours. Cells were harvested by centrifugation (4,000 ×g, 4° C., 20 min), re-suspended in 50 ml of 10 mM HEPES pH 7.5 (1/20 of the initial volume). The cells were lysed by sonication (5 pulses of 45 seconds) at 45 Won ice. The lysates were clarified by centrifugation at 10,000 ×g for 40 minutes at 4° C. Samples were diluted 5-fold in 50 mM sodium acetate pH 5.0, stored overnight at 4° C., after which they were centrifuged at 10,000 ×g for 30 minutes to clarify, and filtered through 0.45 μm filters. The samples were loaded onto a 5 ml Capto S sepharose cation exchange column (GE Healthcare) pre-equilibrated with 50 mM sodium acetate pH 5.0. The column was washed with 5 column volumes of 50 mM sodium acetate pH 5.0 to wash out unbound protein and a linear gradient of NaCl (0 to 500 mM) was used to elute the protein (over 16 CV) from the column. Fractions were assayed for β-lactamase activity using Centa (Calbiochem, Gibbstown, N.J.) or Nitrocefin (EMD Millipore chemicals, Darmstadt, Germany) as a reporter β-lactamase substrate for activity in the isolated fractions. Active fractions were pooled, concentrated and further purified by gel filtration chromatography on a Superdex 75 prep grade gel filtration column (GE Healthcare, Piscataway, N.J.) pre -equilibrated in 50 mM Hepes pH 7.5, 150 mM NaCl. Active fractions were pooled, concentrated, and quantitated by BCA protein determination (ThermoScientific, Rockford, Ill.), dialyzed into PBS and frozen at […] in 20% glycerol until use.
(§5) An equal volume of diluted enzyme stock was added, and the plates were incubated at 37° C. for 15 min. Nitrocefin was used as substrate for p99 AmpC, VIM-2 and OXA-48 and dispensed into each well at a final concentration of 100 μM. Absorbance at 486 nm was immediately monitored for 10 min using a Biotek Powerwave XS2 microplate spectrophotometer using the GEN5 software package (Biotek Instruments, Winooski Vt.). In an analogous fashion, imipenem was used as substrate for KPC-2 and Cefotaxime was used for SHV-5, while changes in absorbance upon hydrolysis of the β-lactam ring were monitored at 300 nm and 260 nm respectively in UV-transparent 96-well microtiter assay plates. Maximum rates of hydrolysis were compared to those in control wells (without inhibitors), and percentages of enzyme inhibition were calculated for each concentration of inhibitor. The concentration of inhibitor needed to reduce the initial rate of hydrolysis of substrate by 50% (IC50) was calculated as the residual activity of β-lactamase at 486 nm using GraFit version 7 kinetics software package (Erithacus Software, Surrey, UK).
(§6) Using the methodology described above, examples of the current invention were evaluated for their ability to inhibit β-lactamase enzymes from all four Ambler classifications (A through D). […] NT=Not tested.

Another assay deals with T2, KPC-2 (Klebsiella pneumoniae, UniProt Q9F663).
T2 construct: made in house; host or cells: E. coli BL21(DE3)
T2 sequence (Q9F663 25-293 limits assumed): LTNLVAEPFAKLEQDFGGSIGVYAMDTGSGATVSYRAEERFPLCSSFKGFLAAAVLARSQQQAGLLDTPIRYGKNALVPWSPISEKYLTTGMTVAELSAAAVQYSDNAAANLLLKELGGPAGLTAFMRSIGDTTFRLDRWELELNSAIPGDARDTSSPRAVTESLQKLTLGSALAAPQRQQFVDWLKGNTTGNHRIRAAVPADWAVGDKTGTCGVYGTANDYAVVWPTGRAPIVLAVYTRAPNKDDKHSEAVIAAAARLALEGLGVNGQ
Nature of the assay: β-lactamase enzyme inhibition assay, KPC-2 (imipenem substrate). In kind it is biochemical. On the procedure: as §4, §5, §6

Assay [5] deals with K. pneumoniae expressing the Class A carbapenemase KPC-3. Nature of the assay: Broth microdilution MIC assay, potentiation of meropenem. In kind it is cell-based. To be noted: Fixed Mero 4 μg/mL; CAMHB, 16-20 hours at 37° C.
Text: as §1, §2

Assay [6] has as its system K. pneumoniae producing the Class D carbapenemase OXA-48. The description is as above. In kind it is cell-based. Conditions: Fixed Mero 4 μg/mL; CAMHB, 16-20 hours at 37° C.
Text: as §1, §2

A further assay concerns the target T3, SHV-5 (Klebsiella pneumoniae, UniProt P0A3M1).
T3 construct: made in house; host or cells: E. coli BL21(DE3)
Nature of the assay: β-lactamase enzyme inhibition assay, SHV-5 (cefotaxime substrate). In kind it is biochemical. On the procedure: as §4, §5, §6

Assay [7] has as its target T4, VIM-2 metallo β-lactamase (Pseudomonas aeruginosa, UniProt Q9K2N0).
T4 construct: made in house; host or cells: E. coli BL21(DE3)
Nature of the assay: β-lactamase enzyme inhibition assay, VIM-2 (nitrocefin substrate). The class given is biochemical. To be noted: 15 min preincubation at 37° C.; nitrocefin 100 μM, 486 nm; read-out: IC50 VIM-2 (Class B). On the procedure: For VIM-2 metallo β-lactamase, the procedure was identical with the following exceptions, first the protein was not pH adjusted to pH 5 with 50 mM sodium acetate. Second, the chromatography step was changed to a 5 ml Q sepharose anion exchange column pre-equilibrated with 50 mM Hepes pH 7.5, and elution of the protein was achieved by a linear gradient of NaCl (0-600 mM). Finally, the VIM-2 purification required a second run (3rd step) on the Q sepharose anion exchange column to achieve acceptable purity (>90%).
as §5, §6

A further assay concerns the target T5, OXA-48 (Klebsiella pneumoniae, UniProt Q6XEC0).
T5 construct: made in house; host or cells: E. coli BL21(DE3)
Nature of the assay: β-lactamase enzyme inhibition assay, OXA-48 (nitrocefin substrate). In kind it is biochemical. On the procedure:
as §4, §5, §6

T5 sequence (Q6XEC0 23-265 limits assumed): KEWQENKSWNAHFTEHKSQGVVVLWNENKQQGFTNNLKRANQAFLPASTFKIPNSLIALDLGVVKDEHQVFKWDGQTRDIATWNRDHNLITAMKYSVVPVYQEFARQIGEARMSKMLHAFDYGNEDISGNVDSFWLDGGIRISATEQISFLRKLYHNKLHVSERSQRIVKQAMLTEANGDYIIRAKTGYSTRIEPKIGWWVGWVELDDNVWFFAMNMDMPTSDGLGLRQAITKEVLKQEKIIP
T3 sequence (P0A3M1 22-286): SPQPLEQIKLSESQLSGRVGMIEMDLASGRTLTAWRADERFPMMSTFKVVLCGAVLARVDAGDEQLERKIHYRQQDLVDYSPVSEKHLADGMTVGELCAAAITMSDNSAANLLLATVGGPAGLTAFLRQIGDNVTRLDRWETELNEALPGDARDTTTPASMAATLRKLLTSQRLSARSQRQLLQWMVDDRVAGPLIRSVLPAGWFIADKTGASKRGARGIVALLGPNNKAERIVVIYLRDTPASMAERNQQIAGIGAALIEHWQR
T1 sequence (P05364 21-381): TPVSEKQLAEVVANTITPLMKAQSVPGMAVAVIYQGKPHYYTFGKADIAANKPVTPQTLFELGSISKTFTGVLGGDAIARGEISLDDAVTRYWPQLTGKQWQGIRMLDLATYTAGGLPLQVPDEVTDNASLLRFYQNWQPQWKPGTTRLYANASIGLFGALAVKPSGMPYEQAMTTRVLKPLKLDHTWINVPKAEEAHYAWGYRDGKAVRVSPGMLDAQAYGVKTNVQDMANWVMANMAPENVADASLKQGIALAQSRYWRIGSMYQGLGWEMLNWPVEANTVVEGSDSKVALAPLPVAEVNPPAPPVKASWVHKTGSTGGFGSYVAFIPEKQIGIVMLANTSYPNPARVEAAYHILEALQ

Turning to `CC(F)(F)CCC(=O)N[C@H]1Cc2cccc(C(=O)O)c2OB1O` [Example 85, (R)-3-(4,4-Difluoro-pentanoylamino)-2-hydroxy-3,4-dihydro-2H -benzo[e][1,2]oxaborinine-8-carboxylic acid], the “MIC (μg/mL) of exemplary compounds in presence of fixed β-lactams, K.P. A-1797 KPC-2 VIM-4” value in assay [1] is “B (B represents the MIC in the presence of between 8 and 32 μg/mL of a β-lactamase inhibitor)”. Further, the “MIC (μg/mL) of exemplary compounds in presence of fixed β-lactams, P. aerug. 2775 VIM-2” value in assay [2] is on record as “C (C represents the MIC in the presence of ≤4 μg/mL of a β-lactamase inhibitor)”. In addition, the “MIC (μg/mL) of exemplary compounds in presence of fixed β-lactams, E. cl. 144200 p99 AmpC” value in [3] is reported as “C (C represents the MIC in the presence of ≤4 μg/mL of a β-lactamase inhibitor)”. Besides, the “MIC (μg/mL) of exemplary compounds in presence of fixed β-lactams, E. coli ESBL4 CTX-M-15” value in [4] is “C (C represents the MIC in the presence of ≤4 μg/mL of a β-lactamase inhibitor)”. Also, the half-inhibitory concentration (IC50) against p99 AmpC was below 100 nM; at KPC-2, below 100 nM; against SHV-5, below 100 nM; in assay [7], 1000 to 10000 nM; on OXA-48 it was 1000 to 10000 nM. Moreover, the “MIC (μg/mL) of exemplary compounds in presence of fixed β-lactams, K. P. 156319 KPC-3” value in [5] is given as “C (C represents the MIC in the presence of ≤4 μg/mL of a β-lactamase inhibitor)”. In addition, in [6], the “MIC (μg/mL) of exemplary compounds in presence of fixed β-lactams, K. P. 11978 OXA-48” value is on record as “C (C represents the MIC in the presence of ≤4 μg/mL of a β-lactamase inhibitor)”.

For `CC(F)C(=O)N[C@H]1Cc2cccc(C(=O)O)c2OB1O` (mixture of isomers) [Example 102, (3R)-3-(2-fluoropropanamido)-2-hydroxy-3,4-dihydro-2H -benzo[e][1,2]oxaborinine-8-carboxylic acid], the “MIC (μg/mL) of exemplary compounds in presence of fixed β-lactams, K.P. A-1797 KPC-2 VIM-4” value in [1] was “B (B represents the MIC in the presence of between 8 and 32 μg/mL of a β-lactamase inhibitor)”. The “MIC (μg/mL) of exemplary compounds in presence of fixed β-lactams, P. aerug. 2775 VIM-2” value in [2] is reported as “C (C represents the MIC in the presence of ≤4 μg/mL of a β-lactamase inhibitor)”. Also, the “MIC (μg/mL) of exemplary compounds in presence of fixed β-lactams, E. cl. 144200 p99 AmpC” value in assay [3] is given as “C (C represents the MIC in the presence of ≤4 μg/mL of a β-lactamase inhibitor)”. Besides, the “MIC (μg/mL) of exemplary compounds in presence of fixed β-lactams, E. coli ESBL4 CTX-M-15” value in assay [4] is listed as “C (C represents the MIC in the presence of ≤4 μg/mL of a β-lactamase inhibitor)”. Further, the IC50 against p99 AmpC is below 100 nM; against KPC-2 it was below 100 nM; against SHV-5, below 100 nM; in assay [7] it was 1000 to 10000 nM; against OXA-48, 100 to 1000 nM. The “MIC (μg/mL) of exemplary compounds in presence of fixed β-lactams, K. P. 156319 KPC-3” value in [5] is on record as “C (C represents the MIC in the presence of ≤4 μg/mL of a β-lactamase inhibitor)”. Further, the “MIC (μg/mL) of exemplary compounds in presence of fixed β-lactams, K. P. 11978 OXA-48” value in assay [6] was “C (C represents the MIC in the presence of ≤4 μg/mL of a β-lactamase inhibitor)”.
